EPA's ToxRefDB 2

Tests used:
rat [1] = settings: Prenatal developmental toxicity study, sprague dawley, Oral, Gavage/Intubation, dose end: 15 GD
mouse [2] = settings: Carcinogenicity; cd1; Oral; Feed; dose end: 18 month; group: systemic; systemic / organ weight / liver / absolute + systemic / organ weight / liver / relative to body weight + systemic / pathology microscopic / …
rat [3] = settings: Multigenerational reproductive toxicity study; other; Oral; Feed; dose end: 3 generation; group: parental; systemic / in life observation / body weight / body weight
dog [4] = settings: Subchronic oral toxicity in nonrodent, beagle, Capsule, dose end: 13 week, group: systemic, systemic / hematology / blood clotting / blood clotting - activated partial thromboplastin time
rat [5] = settings: Combined chronic toxicity/carcinogenicity, sprague dawley, Oral, Feed, dose end: 106 week, group: systemic
rat [6] = settings: Subchronic oral toxicity in rodents, other, Feed, dose end: 13 week
rat [7] = settings: Multigenerational reproductive toxicity study, other, Oral, Feed, dose end: 2 generation
rat [8] = settings: Subchronic oral toxicity in rodents, sprague dawley, Feed, dose end: 90 day, group: systemic
dog [9] = settings: Chronic toxicity; beagle; Oral; Capsule; dose end: 52 week; group: systemic; systemic / clinical chemistry / alkaline phosphatase (alp/alk) / alkaline phosphatase (alp/alk) + systemic / hematology / blood clotting / …
mouse [10] = settings: Carcinogenicity; cd1; Oral; [Not Specified]; dose end: 79 week; group: systemic; systemic / hematology / erythrocyte (rbc) count differential / erythrocyte (rbc) + systemic / hematology / hematocrit (hct) / hematocrit (…
[11] = group: developmental, developmental / developmental malformation / bone / delayed ossification
[12] = group: maternal, systemic / in life observation / body weight / body weight gain
[13] = systemic / organ weight / spleen / absolute + systemic / organ weight / liver / relative to body weight
[14] = group: cholinesterase, cholinesterase / cholinesterase / cholinesterase / cholinesterase (che)
[15] = group: systemic, systemic / organ weight / liver / relative to body weight + systemic / clinical chemistry / [other] / [other] + systemic / in life …
[16] = group: offspring, developmental / offspring survival late / viability index / viability index
[17] = group: offspring, developmental / offspring survival late / viability index / viability index + systemic / in life observation / body weight / offspring (pup…
[18] = group: parental, systemic / organ weight / kidney / absolute
[19] = group: parental, systemic / organ weight / kidney / absolute + systemic / organ weight / kidney / relative to body weight + systemic / organ weight / liver…
[20] = systemic / urinalysis / sediment microscopic / epithelial cells
[21] = systemic / urinalysis / sediment microscopic / epithelial cells + systemic / organ weight / liver / relative to body weight

What does the source list for `O=C(O)Cc1c(Cl)ccc(Cl)c1Cl` [Chlorfenac]?
LEL (rat [1]; [11]): 300 mg/kg/day; LOAEL (rat [1]; [11]): > 300 mg/kg/day; NEL (rat [1]; [11]): 60 mg/kg/day; NOAEL (rat [1]; [11]): ≥ 300 mg/kg/day; LEL (rat [1]; [12]): 300 mg/kg/day; LOAEL (rat [1]; [12]): > 300 mg/kg/day; NEL (rat [1]; [12]): 60 mg/kg/day; NOAEL (rat [1]; [12]): ≥ 300 mg/kg/day; LEL (mouse [2]): 600 mg/kg/day; LOAEL (mouse [2]): > 600 mg/kg/day; NEL (mouse [2]): 300 mg/kg/day; NOAEL (mouse [2]): ≥ 600 mg/kg/day; LEL (rat [3]): 125 mg/kg/day; LOAEL (rat [3]): > 125 mg/kg/day; NEL (rat [3]): 25 mg/kg/day; NOAEL (rat [3]): ≥ 125 mg/kg/day

With `CCCCCOC(=O)COc1cc(N2C(=O)C3=C(CCCC3)C2=O)c(F)cc1Cl` [Flumiclorac-pentyl] as the compound, how does the LEL (dog [4]) read?
The LEL was 100 mg/kg/day.

And the LOAEL (dog [4])?
Its LOAEL is 100 mg/kg/day.

What about the NEL (dog [4]) of the same compound?
The NEL was 10 mg/kg/day.

And the NOAEL (dog [4])?
Its NOAEL is 10 mg/kg/day.

And the LOAEL (rat [5]; systemic / organ weight / liver / relative to body weight + systemic / organ weight / kidney / absolute + systemic / organ weight / liver / …)?
Its LOAEL is 360 mg/kg/day.

What about the LEL (rat [5]; [13]) of the same compound?
The LEL was 3.5 mg/kg/day.

What about the NEL (rat [5]; [13]) of the same compound?
Its NEL is < 3.5 mg/kg/day.

And the NOAEL (rat [5]; systemic / organ weight / spleen / absolute + systemic / organ weight / liver / relative to body weight + systemic / organ weight / kidney…)?
The NOAEL was 35.4 mg/kg/day.

And the LEL (rat [6]; [14])?
Its LEL is 73.8 mg/kg/day.

And the LOAEL (rat [6]; [14])?
The LOAEL was 73.8 mg/kg/day.

What about the NEL (rat [6]; [14]) of the same compound?
Its NEL is 7.4 mg/kg/day.

What about the NOAEL (rat [6]; [14]) of the same compound?
Its NOAEL is 7.4 mg/kg/day.

What about the LEL (rat [6]; group: systemic, systemic / clinical chemistry / [other] / [other] + systemic / in life observation / food consumption / food efficiency + systemic / in life…) of the same compound?
The LEL was 664 mg/kg/day.

What about the LOAEL (rat [6]; group: systemic, systemic / organ weight / liver / relative to body weight) of the same compound?
The LOAEL was 1360 mg/kg/day.

What about the NEL (rat [6]; [15]) of the same compound?
Its NEL is 67 mg/kg/day.

What about the NOAEL (rat [6]; [15]) of the same compound?
The NOAEL was 664 mg/kg/day.

What about the LEL (rat [7]; [16]) of the same compound?
The LEL was 829 mg/kg/day.

What about the LOAEL (rat [7]; [16]) of the same compound?
The LOAEL was 829 mg/kg/day.

And the NEL (rat [7]; [17])?
Its NEL is 18 mg/kg/day.

What about the NOAEL (rat [7]; [17]) of the same compound?
The NOAEL was 18 mg/kg/day.

What about the LEL (rat [7]; [18]) of the same compound?
The LEL was 18 mg/kg/day.

What about the NEL (rat [7]; [18]) of the same compound?
The NEL was < 18 mg/kg/day.

And the LOAEL (rat [7]; [19])?
Its LOAEL is 829 mg/kg/day.

And the NOAEL (rat [7]; [19])?
The NOAEL was 18 mg/kg/day.

What about the LEL (rat [8]; [20]) of the same compound?
The LEL was 659 mg/kg/day.

And the LOAEL (rat [8]; [20])?
The LOAEL was 659 mg/kg/day.

What about the NEL (rat [8]; [21]) of the same compound?
Its NEL is 64.9 mg/kg/day.

What about the NOAEL (rat [8]; [21]) of the same compound?
The NOAEL was 64.9 mg/kg/day.

And the LEL (dog [9])?
The LEL was 1000 mg/kg/day.

And the LOAEL (dog [9])?
The LOAEL was 1000 mg/kg/day.

And the NEL (dog [9])?
The NEL was 100 mg/kg/day.

And the NOAEL (dog [9])?
The NOAEL was 100 mg/kg/day.

What about the LEL (mouse [10]) of the same compound?
Its LEL is 308 mg/kg/day.

And the LOAEL (mouse [10])?
The LOAEL was 308 mg/kg/day.

What about the NEL (mouse [10]) of the same compound?
The NEL was 31.5 mg/kg/day.

And the NOAEL (mouse [10])?
Its NOAEL is 31.5 mg/kg/day.
